# Experimental data as given in ChEMBL document CHEMBL1201862, “PubChem BioAssay data set” (2004).
#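 Where inhibition never reached the appropriate level, the endpoint shown equals the highest concentration tested. Otherwise, values were interpolated linearly from a five-concentration, 48-hour dose response in 96-well plates. GI50 = concentration required for 50% inhibition of growth.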 The source made the active and inactive calls. Rule as the data show it: active = GI50 up to about 1.1 µM and inactive = higher.
# Legend:
# Test in all cases: NCI tumour cell line growth inhibition, 48 h
# ACHN = tested on: ACHN
# HCT-116 = tested on: HCT-116
# SNB-19 = tested on: SNB-19
# UO-31 = tested on: UO-31
# SK-MEL-2 = tested on: SK-MEL-2
# COLO 205 = tested on: COLO 205
# NCI-H23 = tested on: NCI-H23
# 786-0 = tested on: 786-0
# KM12 = tested on: KM12
# UACC-257 = tested on: UACC-257
# NCI/ADR-RES = tested on: NCI/ADR-RES
# A498 = tested on: A498
# HCC 2998 = tested on: HCC 2998
# UACC-62 = tested on: UACC-62
# SR = tested on: SR
# OVCAR-4 = tested on: OVCAR-4
# IGROV-1 = tested on: IGROV-1
# CCRF-CEM = tested on: CCRF-CEM
# HCT-15 = tested on: HCT-15
# DU-145 = tested on: DU-145
# U-251 = tested on: U-251
# EKVX = tested on: EKVX
# SK-MEL-5 = tested on: SK-MEL-5
# SW-620 = tested on: SW-620
# MCF7 = tested on: MCF7
# BT-549 = tested on: BT-549
# NCI-H460 = tested on: NCI-H460
# OVCAR-3 = tested on: OVCAR-3
# HL-60 = tested on: HL-60
# A549 = tested on: A549
# SF-295 = tested on: SF-295
# K562 = tested on: K562
# SK-MEL-28 = tested on: SK-MEL-28
# SNB-75 = tested on: SNB-75
# OVCAR-5 = tested on: OVCAR-5
# HT-29 = tested on: HT-29
# SF-268 = tested on: SF-268
# NCI-H522 = tested on: NCI-H522
# SK-OV-3 = tested on: SK-OV-3
# RXF 393 = tested on: RXF 393
# M14 = tested on: M14
# MDA-N = tested on: MDA-N
# CAKI-1 = tested on: CAKI-1
# Malme-3M = tested on: Malme-3M
# TK-10 = tested on: TK-10
# NCI-H226 = tested on: NCI-H226
# HOP-92 = tested on: HOP-92
# RPMI-8226 = tested on: RPMI-8226
# MOLT-4 = tested on: MOLT-4
# MDA-MB-435 = tested on: MDA-MB-435
# SN12C = tested on: SN12C
# HOP-62 = tested on: HOP-62
# SF-539 = tested on: SF-539
# MDA-MB-231 = tested on: MDA-MB-231
# LOX IMVI = tested on: LOX IMVI
# PC-3 = tested on: PC-3
# T47D = tested on: T47D
# Hs-578T = tested on: Hs-578T
# OVCAR-8 = tested on: OVCAR-8
# SNB-78 = tested on: SNB-78
# DMS-273 = tested on: DMS-273
# DMS-114 = tested on: DMS-114
# LXFL 529 = tested on: LXFL 529
# HOP-18 = tested on: HOP-18
# DLD-1 = tested on: DLD-1
# KM-20L2 = tested on: KM-20L2
# M19-MEL = tested on: M19-MEL
smiles,measurement,setting,value
NC1=Nc2ccccc2Sc2nccn21,GI50,ACHN,30 µM (inactive)
same,GI50,HCT-116,27.5 µM (inactive)
same,GI50,SNB-19,40.3 µM (inactive)
same,GI50,UO-31,23.9 µM (inactive)
same,GI50,SK-MEL-2,32.7 µM (inactive)
same,GI50,COLO 205,15.4 µM (inactive)
same,GI50,NCI-H23,23.9 µM (inactive)
same,GI50,786-0,24.6 µM (inactive)
same,GI50,KM12,24.2 µM (inactive)
same,GI50,UACC-257,31.8 µM (inactive)
same,GI50,NCI/ADR-RES,30.5 µM (inactive)
same,GI50,A498,28.2 µM (inactive)
same,GI50,HCC 2998,21 µM (inactive)
same,GI50,UACC-62,28.2 µM (inactive)
same,GI50,SR,26.4 µM (inactive)
same,GI50,OVCAR-4,30.6 µM (inactive)
same,GI50,IGROV-1,23.9 µM (inactive)
same,GI50,CCRF-CEM,27 µM (inactive)
same,GI50,HCT-15,25.2 µM
same,GI50,DU-145,37.7 µM (inactive)
same,GI50,U-251,32.8 µM (inactive)
same,GI50,EKVX,27.7 µM (inactive)
same,GI50,SK-MEL-5,16.5 µM (inactive)
same,GI50,SW-620,32.3 µM (inactive)
same,GI50,MCF7,44.3 µM (inactive)
same,GI50,BT-549,54.3 µM (inactive)
same,GI50,NCI-H460,31 µM (inactive)
same,GI50,OVCAR-3,18.6 µM (inactive)
same,GI50,HL-60,18.7 µM (inactive)
same,GI50,A549,41.7 µM (inactive)
same,GI50,SF-295,22.3 µM (inactive)
same,GI50,K562,19.6 µM (inactive)
same,GI50,SK-MEL-28,35.8 µM (inactive)
same,GI50,SNB-75,17.9 µM (inactive)
same,GI50,OVCAR-5,48.8 µM (inactive)
same,GI50,HT-29,23 µM (inactive)
same,GI50,SF-268,30.2 µM (inactive)
same,GI50,NCI-H522,19.3 µM (inactive)
same,GI50,SK-OV-3,> 100 µM (inactive)
same,GI50,RXF 393,25.8 µM (inactive)
same,GI50,M14,17 µM (inactive)
same,GI50,MDA-N,23 µM (inactive)
same,GI50,CAKI-1,27.4 µM (inactive)
same,GI50,Malme-3M,17.2 µM (inactive)
same,GI50,TK-10,30.6 µM (inactive)
same,GI50,NCI-H226,20.9 µM (inactive)
same,GI50,HOP-92,15.1 µM (inactive)
same,GI50,RPMI-8226,18.2 µM (inactive)
same,GI50,MOLT-4,20.2 µM (inactive)
same,GI50,MDA-MB-435,23.7 µM (inactive)
same,GI50,SN12C,36.3 µM (inactive)
same,GI50,HOP-62,24.4 µM (inactive)
same,GI50,SF-539,23.9 µM (inactive)
same,GI50,MDA-MB-231,16.1 µM (inactive)
same,GI50,LOX IMVI,17.8 µM (inactive)
same,GI50,PC-3,22.6 µM (inactive)
same,GI50,T47D,24.7 µM (inactive)
same,GI50,Hs-578T,25.3 µM (inactive)
same,GI50,OVCAR-8,31.1 µM (inactive)
NC(=S)N/N=C(/CC(=O)c1ccccc1)C(=O)Nc1ccc(Cl)c(Cl)c1,GI50,ACHN,75.2 µM (inactive)
same,GI50,HCT-116,> 100 µM (inactive)
same,GI50,SNB-19,91.2 µM (inactive)
same,GI50,UO-31,51.2 µM (inactive)
same,GI50,SK-MEL-2,78.2 µM (inactive)
same,GI50,COLO 205,> 100 µM (inactive)
same,GI50,NCI-H23,> 100 µM (inactive)
same,GI50,786-0,59.7 µM (inactive)
same,GI50,KM12,65.3 µM (inactive)
same,GI50,UACC-257,> 100 µM (inactive)
same,GI50,SNB-78,> 100 µM (inactive)
same,GI50,DMS-273,76.6 µM (inactive)
same,GI50,A498,> 100 µM (inactive)
same,GI50,HCC 2998,93.5 µM (inactive)
same,GI50,UACC-62,27.4 µM (inactive)
same,GI50,DMS-114,71.6 µM (inactive)
same,GI50,OVCAR-4,57.3 µM (inactive)
same,GI50,IGROV-1,65.2 µM (inactive)
same,GI50,CCRF-CEM,28.6 µM (inactive)
same,GI50,HCT-15,43.3 µM
same,GI50,LXFL 529,83.4 µM (inactive)
same,GI50,U-251,59 µM (inactive)
same,GI50,EKVX,33 µM (inactive)
same,GI50,SK-MEL-5,41.7 µM (inactive)
same,GI50,HOP-18,> 100 µM (inactive)
same,GI50,SW-620,78.5 µM (inactive)
same,GI50,NCI-H460,46.7 µM (inactive)
same,GI50,OVCAR-3,37.3 µM (inactive)
same,GI50,DLD-1,83.6 µM (inactive)
same,GI50,HL-60,23.3 µM (inactive)
same,GI50,A549,> 100 µM (inactive)
same,GI50,SF-295,61.9 µM (inactive)
same,GI50,K562,> 100 µM (inactive)
same,GI50,SK-MEL-28,> 100 µM (inactive)
same,GI50,SNB-75,> 100 µM (inactive)
same,GI50,OVCAR-5,> 100 µM (inactive)
same,GI50,HT-29,> 100 µM (inactive)
same,GI50,SF-268,> 100 µM (inactive)
same,GI50,NCI-H522,21.6 µM (inactive)
same,GI50,SK-OV-3,> 100 µM (inactive)
same,GI50,RXF 393,> 100 µM (inactive)
same,GI50,KM-20L2,> 100 µM (inactive)
same,GI50,M14,> 100 µM (inactive)
same,GI50,CAKI-1,68.5 µM (inactive)
same,GI50,Malme-3M,> 100 µM (inactive)
same,GI50,TK-10,> 100 µM (inactive)
same,GI50,NCI-H226,> 100 µM (inactive)
same,GI50,HOP-92,40 µM (inactive)
same,GI50,RPMI-8226,73.3 µM (inactive)
same,GI50,MOLT-4,32.3 µM (inactive)
same,GI50,M19-MEL,> 100 µM (inactive)
same,GI50,SN12C,> 100 µM (inactive)
same,GI50,HOP-62,60.4 µM (inactive)
same,GI50,SF-539,> 100 µM (inactive)
same,GI50,LOX IMVI,74.3 µM (inactive)
same,GI50,OVCAR-8,47.6 µM (inactive)
